From patent publication US12484574B2, “Agent for promoting undifferentiation and cryoprotective agent using aprotic zwitterion” (JAPAN SCIENCE AND TECHNOLOGY AGENCY, priority 2019, dated 2025)
“Also recorded” adds a separate entry of the source.

Assays:
[1] = Glass transition temperature and heat quantity by differential scanning calorimetry (DSC); type: physicochemical; details: 10 wt % in purified water, cooling −1° C./min, heating 5° C./min
Procedure: The glass transition temperature and the heat quantity were determined by differential scanning calorimetry (DSC). The measurement was performed with a cooling rate set to −1° C./min an d a heating rate set to 5° C./min.

[2] = system: Human skin fibroblasts / Mouse fibroblasts C57BL/6-GFP; test: Cell state 24 hours after start of culture, slow freezing method (microscope); type: cell-based; details: 5% by weight in H2O, thawed, cultured 24 hours, cell type of FIG. 5 not stated
Procedure: (§1) The cells to be frozen (two types) were centrifugally recovered by trypsin treatment and diluted with Dulbecco's modified Eagle medium (DMEM), and each cell concentration was measured. The types and cell concentrations of the cells are as follows. • Human skin fibroblasts 5.0×10^5 cells/100 μl • Mouse fibroblasts C57BL/6-GFP 5.0×10^5 cells/100 μl
Subsequently, the cells of each type were dispensed at 1 ml/tube to 1.5 ml tubes, centrifuged, suspended in 100 μl each of the cryopreservation solutions described above, and frozen at a cooling temperature of −80° C. at a cooling rate of −1° C./min using a cell freezing container Mr. Frosty®.
1 ml of a medium was added to the cryopreservation vial for thawing, and a supernatant was removed by centrifugation. Subsequently, the cells obtained by centrifugation were resuspended in a medium, followed by the measurement of a viable cell count. Then, culture was started in a 6-well plate.
24 hours after the start of culture, the sample was fixed in 4% paraformaldehyde (PFA) and observed under a microscope.

[3] = system: Mouse fibroblasts C57BL/6-GFP; test: Cell freezing, rapid freezing method, viable cell count (Example 4); type: cell-based
Procedure: (§2) Human ES cell and human iPS cell cryopreservation solution DAP213 (manufactured by ReproCELL Inc.) • 75% by weight of OE2imC3C/H2O • 50% by weight of OE2imC3C/H2O • 25% by weight of OE2imC3C/H2O
as §1, with “fibroblasts 8.2×10^5” for “fibroblasts 5.0×10^5”, “μl (N=3)” for “μl”, “C57BL/6-GFP 1.2×10^6” for “C57BL/6-GFP 5.0×10^5”
(§3) Subsequently, the cells of each type were dispensed at 1 ml/tube to 1.5 ml tubes, centrifuged, suspended in 100 μl each of the cryopreservation solutions described above, and immediately thereafter rapidly frozen in liquid nitrogen within 10 to 15 seconds. Then, the cells were preserved for 3 days in a liquid nitrogen tank.
(§4) The cryopreservation vial was rapidly thawed with 1 ml of a medium, and a supernatant was removed by centrifugation. Subsequently, the cells obtained by centrifugation were resuspended in a medium, followed by the measurement of a viable cell count. Then, culture was started in a 6-well plate.
(§5) 24 hours after the start of culture, the viable cell count was measured.

Human skin fibroblasts = test: as above; type: cell-based
Procedure: as §2
as §1, with “fibroblasts 8.2×10^5” for “fibroblasts 5.0×10^5”, “μl (N=3)” for “μl”, “C57BL/6-GFP 1.2×10^6” for “C57BL/6-GFP 5.0×10^5”
as §3, §4, §5

human fibroblasts = test: Influence on cell cycle (Click-iT Plus EdU cell proliferation assay); type: cell-based; details: 2% addition; compared with no addition; FIG. 11
Procedure: The cells used were human fibroblasts.
The test groups were 1% addition groups and 2% addition groups of DMSO and HLS (OE2imC3C) vs. a control.
Cell cycle analysis was conducted using Click-iT® Plus EdU cell proliferation assay (Thermo Fisher Scientific Inc.) containing 5-ethynyl-2′-deoxyuridine (EdU) according to the manufacturer's protocol. The cells were incubated in 10 μM EdU for 1 hour, treated with trypsin, then fixed in 4% PFA, and labeled with Alexa Fluor 647 picolyl azide. The cells were stained with 4′,6-diamidino-2-phenylindole (DAPI) and analyzed with BD FACSAria™ III (BD Biosciences).

## COCCOCCn1cc[n+](CCCC(=O)[O-])c1 [OE2imC3C]
[1]
  Heat quantity: -198.7 J/g
  Tg: −85.69 °C
[2]
  cell state 24 hours after the start of culture: confirmed to adhere to the dish bottom
[3]; 75, 50, 25% by weight in H2O, rapidly frozen in liquid nitrogen, preserved 3 days, FIG. 8
  viable cell count after thawing: comparable to that of the commercially available cryopreservation solution DAP213; also recorded: a lower concentration (25% by weight) offered a higher survival rate of the cells
[3]; rapid freezing method, FIG. 10
  viable cell count 24 hours after the start of culture: reached a high value, albeit being inferior to the commercially available cryopreservation solution DAP213
Human skin fibroblasts; 75, 50, 25% by weight in H2O, rapidly frozen in liquid nitrogen, preserved 3 days, FIG. 7
  viable cell count after thawing: comparable to that of the commercially available cryopreservation solution DAP213; also recorded: a lower concentration (25% by weight) offered a higher survival rate of the cells
Human skin fibroblasts; rapid freezing method, FIG. 9
  viable cell count 24 hours after the start of culture: reached a high value, albeit being inferior to the commercially available cryopreservation solution DAP213
Human fibroblasts
  influence on cell cycle (G0/G1 phase, S phase): little influence
